Measurements reported in PubChem BioAssay (NCI).
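Growth conditions: 96-well plates. Treatment: test compound, 48 hours, 5 concentrations. Analysis: linear interpolation between bracketing concentrations; unreached endpoints set to highest concentration. Abbreviation: GI50, concentration required for 50% inhibition of growth. At the TGI there is no net growth.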

Key:
Assay in all cases: growth of human tumour cells (NCI), 48 h
[1] = tested on: SF-539 CNS
[2] = tested on: HCT-116 colon
[3] = tested on: TK-10 renal
[4] = tested on: HT29 colon
[5] = tested on: COLO 205 colon
[6] = tested on: SF-295 CNS
[7] = tested on: IGROV1 ovarian
[8] = tested on: NCI/ADR-RES ovarian
[9] = tested on: A549 NSCLC
[10] = tested on: SNB-19 CNS
[11] = tested on: SK-MEL-2 melanoma
[12] = tested on: OVCAR-5 ovarian
[13] = tested on: NCI-H226 lung
[14] = tested on: HS 578T breast
[15] = tested on: A498 renal
[16] = tested on: T-47D breast
[17] = tested on: K-562 leukemia
[18] = tested on: MDA-MB-231 breast
[19] = tested on: KM12 colon
[20] = tested on: OVCAR-4 ovarian
[21] = tested on: SN12C renal
[22] = tested on: SK-OV-3 ovarian
[23] = tested on: UACC-62 melanoma
[24] = tested on: OVCAR-8 ovarian
[25] = tested on: PC-3 prostate
[26] = tested on: MCF7 breast
[27] = tested on: BT-549 breast
[28] = tested on: DU-145 prostate
[29] = tested on: M14 melanoma
[30] = tested on: SK-MEL-28 melanoma
[31] = tested on: UACC-257 melanoma
[32] = tested on: U251 CNS
[33] = tested on: 786-0 renal
[34] = tested on: HOP-62 NSCLC
[35] = tested on: EKVX NSCLC
[36] = tested on: MALME-3M melanoma
[37] = tested on: SW-620 colon
[38] = tested on: SF-268 CNS
[39] = tested on: UO-31 renal
[40] = tested on: SK-MEL-5 melanoma
[41] = tested on: SNB-75 CNS
[42] = tested on: NCI-H460 lung
[43] = tested on: CAKI-1 renal
[44] = tested on: RPMI-8226 leukemia
[45] = tested on: MDA-MB-435
[46] = tested on: HOP-92 NSCLC
[47] = tested on: CCRF-CEM leukemia
[48] = tested on: HCC-2998 colon
[49] = tested on: HCT-15 colon
[50] = tested on: SR leukemia
[51] = tested on: ACHN renal
[52] = tested on: NCI-H23 lung
[53] = tested on: MOLT-4 leukemia
[54] = tested on: HL-60(TB) leukemia
[55] = tested on: RXF 393 renal

COC(=O)NC/C=C\c1nc(CC/C=C\C(=O)OC2CC3CC(=O)O[C@H](/C=C/CC(C)C)C[C@H]4CCC(C)C(C[C@H](OC)CC(C2)O3)O4)co1 (stereo partly specified)
GI50 [1]: < 0.01 µM
TGI [1]: 0.114 µM
GI50 [2]: < 0.01 µM
TGI [2]: 37.5 µM
GI50 [3]: 1.55 µM
TGI [3]: 74 µM
GI50 [4]: 0.742 µM
TGI [4]: > 100 µM
GI50 [5]: 1.1 µM
TGI [5]: > 100 µM
GI50 [6]: < 0.01 µM
TGI [6]: 61.5 µM
GI50 [7]: 2.51 µM
TGI [7]: > 100 µM
GI50 [8]: 59 µM
TGI [8]: > 100 µM
GI50 [9]: < 0.01 µM
TGI [9]: > 100 µM
GI50 [10]: 23 µM
TGI [10]: > 100 µM
GI50 [11]: 20.2 µM
TGI [11]: > 100 µM
GI50 [12]: 0.877 µM
TGI [12]: > 100 µM
GI50 [13]: 12.9 µM
TGI [13]: > 100 µM
GI50 [14]: 18.2 µM
TGI [14]: > 100 µM
GI50 [15]: 13.6 µM
TGI [15]: 57.1 µM
GI50 [16]: 39.1 µM
TGI [16]: > 100 µM
GI50 [17]: < 0.01 µM
TGI [17]: 20.3 µM
GI50 [18]: 11.3 µM
TGI [18]: > 100 µM
GI50 [19]: 4.25 µM
TGI [19]: > 100 µM
GI50 [20]: 23.4 µM
TGI [20]: > 100 µM
GI50 [21]: < 0.01 µM
TGI [21]: 28.8 µM
GI50 [22]: 63.9 µM
TGI [22]: > 100 µM
GI50 [23]: 0.0635 µM
TGI [23]: > 100 µM
GI50 [24]: > 100 µM
TGI [24]: > 100 µM
GI50 [25]: 0.218 µM
TGI [25]: > 100 µM
GI50 [26]: < 0.01 µM
TGI [26]: 10.5 µM
GI50 [27]: 0.016 µM
TGI [27]: 2.95 µM
GI50 [28]: 1.54 µM
TGI [28]: > 100 µM
GI50 [29]: 4.27 µM
TGI [29]: > 100 µM
GI50 [30]: 12.1 µM
TGI [30]: > 100 µM
GI50 [31]: > 100 µM
TGI [31]: > 100 µM
GI50 [32]: 1.42 µM
TGI [32]: > 100 µM
GI50 [33]: < 0.01 µM
TGI [33]: > 100 µM
GI50 [34]: < 0.01 µM
TGI [34]: 62.7 µM
GI50 [35]: < 0.01 µM
TGI [35]: 4.8 µM
GI50 [36]: 17.1 µM
TGI [36]: 45.1 µM
GI50 [37]: < 0.01 µM
TGI [37]: > 100 µM
GI50 [38]: < 0.01 µM
TGI [38]: 24.3 µM
GI50 [39]: 25.4 µM
TGI [39]: > 100 µM
GI50 [40]: < 0.01 µM
TGI [40]: 19.3 µM
GI50 [41]: 32.5 µM
TGI [41]: > 100 µM
GI50 [42]: < 0.01 µM
TGI [42]: 63.5 µM
GI50 [43]: < 0.01 µM
TGI [43]: 41.1 µM

N#CCN1CCCCCc2ccccc21
TGI [1]: > 100 µM
TGI [2]: > 100 µM
TGI [3]: > 100 µM
TGI [4]: > 100 µM
TGI [44]: > 100 µM
TGI [5]: > 100 µM
TGI [6]: > 100 µM
TGI [7]: > 100 µM
TGI [8]: > 100 µM
TGI [45]: > 100 µM
TGI [46]: > 100 µM
TGI [9]: > 100 µM
TGI [47]: > 100 µM
TGI [10]: > 100 µM
TGI [48]: > 100 µM
TGI [12]: > 100 µM
TGI [13]: > 100 µM
TGI [14]: > 100 µM
TGI [49]: > 100 µM
TGI [50]: > 100 µM
TGI [16]: > 100 µM
TGI [17]: > 100 µM
TGI [18]: > 100 µM
TGI [19]: > 100 µM
TGI [20]: > 100 µM
TGI [21]: > 100 µM
TGI [51]: > 100 µM
TGI [52]: > 100 µM
TGI [22]: > 100 µM
TGI [23]: > 100 µM
TGI [24]: > 100 µM
TGI [26]: > 100 µM
TGI [28]: > 100 µM
TGI [29]: > 100 µM
TGI [30]: > 100 µM
TGI [53]: > 100 µM
TGI [54]: > 100 µM
TGI [55]: > 100 µM
TGI [31]: > 100 µM
TGI [32]: > 100 µM
TGI [33]: > 100 µM
TGI [34]: > 100 µM
TGI [35]: > 100 µM
TGI [36]: > 100 µM
TGI [37]: > 100 µM
TGI [38]: > 100 µM
TGI [39]: > 100 µM
TGI [40]: > 100 µM
TGI [41]: > 100 µM
TGI [42]: > 100 µM
